# Read-outs that look alike come from different tables or passages of the source.
# Biological target: T1, CCR2 receptor (Homo sapiens, UniProt P41597)
# T1 construct: expressed in transfected cells
# Experiment: compound-induced calcium activity on FLIPR Tetra in HEK-Gqi5 cells stably expressing CCR2
# Format: cell-based
# Description: HEK-Gqi5 cells stably expressing CCR2 were cultured in (DMEM high glucose, 10% FBS, 1% PSA, 400 μg/ml geneticin and 50 μg/ml hygromycin. Appropriate positive control chemokines (MCP-1, MIP1A or RANTES) was used as the positive control agonist for screening compound-induced calcium activity assayed on the FLIPR^Tetra. The drug plates were prepared in 384-well microplates using the EP3 and the MultiPROBE robotic liquid handling systems. Compounds were synthesized and tested for CCR2 activity.
# [1] = CCR2 receptor, HEK-Gqi5 cells stably expressing CCR2, calcium FLIPR Tetra
# [2] = CCR2 receptor, HEK-Gqi5 cells stably expressing CCR2, calcium FLIPR Tetra, read-out: IC50
# T1 sequence (P41597 whole entry): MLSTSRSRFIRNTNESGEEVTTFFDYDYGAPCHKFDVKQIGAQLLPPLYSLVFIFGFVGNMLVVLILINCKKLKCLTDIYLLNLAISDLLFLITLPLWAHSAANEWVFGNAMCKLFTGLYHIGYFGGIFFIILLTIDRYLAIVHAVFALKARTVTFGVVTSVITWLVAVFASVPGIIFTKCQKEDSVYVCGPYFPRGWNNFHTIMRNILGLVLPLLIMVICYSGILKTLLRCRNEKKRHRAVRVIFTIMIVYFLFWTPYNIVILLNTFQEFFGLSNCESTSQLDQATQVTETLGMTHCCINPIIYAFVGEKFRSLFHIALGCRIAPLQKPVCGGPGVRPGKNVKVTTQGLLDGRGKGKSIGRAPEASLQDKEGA
Structure (SMILES),% ANTAGONISM [1],IC50 [2],IC50
"O=S(=O)(Nc1cc(Cl)cnc1SCc1ccccc1)c1cc2ccccc2o1 [Compound 1, N-[2-(benzylthio)-5-chloropyridin-3-yl]-1-benzofuran-2-sulfonamide]",83%,252 nM,–
"O=S(=O)(Nc1cc(Cl)cnc1[S+]([O-])Cc1ccccc1)c1cc2ccccc2o1 (stereo not drawn) [Compound 2, N-[2-(benzylsulfinyl)-5-chloropyridin-3-yl]-1-benzofuran-2-sulfonamide]",94%,31 nM,–
"O=S(=O)(Cc1ccccc1)c1ncc(Cl)cc1NS(=O)(=O)c1cc2ccccc2o1 [Compound 3, N-[2-(benzylsulfonyl)-5-chloropyridin-3-yl]-1-benzofuran-2-sulfonamide]",90%,19 nM,–
"O=S(=O)(Nc1cc(Cl)cnc1SCc1cccnc1)c1cc2ccccc2o1 [Compound 4, N-{5-chloro-2-[(pyridin-3-ylmethyl)thio]pyridin-3-yl}-1-benzofuran-2-sulfonamide]",95%,32 nM,–
"O=S(=O)(Nc1cc(Cl)cnc1[S+]([O-])Cc1cccnc1)c1cc2ccccc2o1 (stereo not drawn) [Compound 5, N-{5-chloro-2-[(pyridin-3-ylmethyl)sulfinyl]pyridin-3-yl}-1-benzofuran-2-sulfonamide]",99%,201 nM,–
"O=S(=O)(Cc1cccnc1)c1ncc(Cl)cc1NS(=O)(=O)c1cc2ccccc2o1 [Compound 6, N-{5-chloro-2-[(pyridin-3-ylmethyl)sulfonyl]pyridin-3-yl}-1-benzofuran-2-sulfonamide]",84%,2140 nM,–
"O=S(=O)(Cc1ccc[n+]([O-])c1)c1ncc(Cl)cc1NS(=O)(=O)c1cc2ccccc2o1 [Compound 7, N-(5-chloro-2-{[(1-oxidopyridin-3-yl)methyl]sulfonyl}pyridin-3-yl)-1-benzofuran-2-sulfonamide]",100%,130 nM,–
"O=S(=O)(Nc1cccnc1SCc1ccccc1)c1cc2ccccc2o1 [Compound 8, N-[2-(benzylthio)pyridin-3-yl]-1-benzofuran-2-sulfonamide]",80%,3010 nM,–
"O=S(=O)(Nc1cccnc1[S+]([O-])Cc1ccccc1)c1cc2ccccc2o1 (stereo not drawn) [Compound 9, N-[2-(benzylsulfinyl)pyridin-3-yl]-1-benzofuran-2-sulfonamide]",100%,27 nM,–
"O=S(=O)(Cc1ccccc1)c1ncccc1NS(=O)(=O)c1cc2ccccc2o1 [Compound 10, N-[2-(benzylsulfonyl)pyridin-3-yl]-1-benzofuran-2-sulfonamide]",95%,16 nM,–
"Nc1cccc(CSc2ncccc2NS(=O)(=O)c2cc3ccccc3o2)c1 [Compound 11, N-{2-[(3-aminobenzyl)sulfanyl]pyridin-3-yl}-1-benzofuran-2-sulfonamide]",99%,102 nM,–
"Nc1cccc(C[S+]([O-])c2ncccc2NS(=O)(=O)c2cc3ccccc3o2)c1 (stereo not drawn) [Compound 12, N-{2-[(3-aminobenzyl)sulfinyl]pyridin-3-yl}-1-benzofuran-2-sulfonamide]",100%,255 nM,–
"CC(C)(C)OC(=O)Nc1cccc(CS(=O)(=O)c2ncccc2NS(=O)(=O)c2cc3ccccc3o2)c1 [Compound 13, tert-butyl {3-[({3-[(1-benzofuran-2-ylsulfonyl)amino]pyridin-2-yl}sulfonyl)methyl]phenyl}carbamate]",102%,497 nM,–
"Nc1cccc(CS(=O)(=O)c2ncccc2NS(=O)(=O)c2cc3ccccc3o2)c1 [Compound 14, N-{2-[(3-aminobenzyl)sulfonyl]pyridin-3-yl}-1-benzofuran-2-sulfonamide]",102%,71 nM,–
"O=S(=O)(Nc1cc(F)cnc1SCc1ccccc1)c1cc2ccccc2o1 [Compound 15, N-[2-(benzylsulfanyl)-5-fluoropyridin-3-yl]-1-benzofuran-2-sulfonamide]",94%,125 nM,–
"O=S(=O)(Nc1cc(F)cnc1[S+]([O-])Cc1ccccc1)c1cc2ccccc2o1 (stereo not drawn) [Compound 16, N-[2-(benzylsulfinyl)-5-fluoropyridin-3-yl]-1-benzofuran-2-sulfonamide]",95%,18 nM,–
"O=S(=O)(Cc1ccccc1)c1ncc(F)cc1NS(=O)(=O)c1cc2ccccc2o1 [Compound 17, N-[2-(benzylsulfonyl)-5-fluoropyridin-3-yl]-1-benzofuran-2-sulfonamide]",101%,43 nM,–
"Nc1cccc(CSc2ncc(Cl)cc2NS(=O)(=O)c2cc3ccccc3o2)c1 [Compound 18, Benzofuran-2-sulfonic acid [2-(3-amino-benzylsulfanyl)-5-chloro-pyridin-3-yl]-amide]",98%,95 nM,–
"Nc1cccc(C[S+]([O-])c2ncc(Cl)cc2NS(=O)(=O)c2cc3ccccc3o2)c1 (stereo not drawn) [Compound 19, N-{2-[(3-aminobenzyl)sulfinyl]-5-chloropyridin-3-yl}-1-benzofuran-2-sulfonamide]",97%,101 nM,–
"Nc1cccc(CS(=O)(=O)c2ncc(Cl)cc2NS(=O)(=O)c2cc3ccccc3o2)c1 [Compound 20, N-(2-((3-aminobenzyl)sulfonyl)-5-chloropyridin-3-yl)benzofuran-2-sulfonamide]",100%,142 nM,–
"Cc1cnc(SCc2ccccc2)c(NS(=O)(=O)c2cc3ccccc3o2)c1 [Compound 21, N-[2-(benzylsulfanyl)-5-methylpyridin-3-yl]-1-benzofuran-2-sulfonamide]",80%,194 nM,–
"Cc1cnc([S+]([O-])Cc2ccccc2)c(NS(=O)(=O)c2cc3ccccc3o2)c1 (stereo not drawn) [Compound 22, N-[2-(benzylsulfinyl)-5-methylpyridin-3-yl]-1-benzofuran-2-sulfonamide]",103%,25 nM,–
"Cc1cnc(S(=O)(=O)Cc2ccccc2)c(NS(=O)(=O)c2cc3ccccc3o2)c1 [Compound 23, N-[2-(benzylsulfonyl)-5-methylpyridin-3-yl]-1-benzofuran-2-sulfonamide]",96%,12 nM,–
"Cc1ncccc1Oc1ncc(Cl)cc1NS(=O)(=O)c1cc2ccccc2o1 [Compound 24, N-{5-chloro-2-[(2-methylpyridin-3-yl)oxy]pyridin-3-yl}-1-benzofuran-2-sulfonamide]",90%,34 nM,–
"COC(=O)c1ccccc1Oc1ncc(Cl)cc1NS(=O)(=O)c1cc2ccccc2o1 [Compound 25, methyl 2-({3-[(1-benzofuran-2-ylsulfonyl)amino]-5-chloropyridin-2-yl}oxy)benzoate]",93%,215 nM,–
"O=C(O)c1ccccc1Oc1ncc(Cl)cc1NS(=O)(=O)c1cc2ccccc2o1 [Compound 26, 2-({3-[(1-benzofuran-2-ylsulfonyl)amino]-5-chloropyridin-2-yl}oxy)benzoic acid]",97%,157 nM,–
"O=C1CCN(C(=O)c2ncc(Cl)cc2NS(=O)(=O)c2cc3ccccc3o2)CC1 [Compound 28, N-{5-chloro-2-[(4-oxopiperidin-1-yl)carbonyl]pyridin-3-yl}-1-benzofuran-2-sulfonamide]",105%,–,24 nM

# — patent US8815915B2, “Benzofuran-2-sulfonamides pyridine derivatives as chemokine receptor modulators” (Allergan, Inc., priority 2012, dated 2014)
